We go through 27 molecules from patent publication US8536202B2, “Triazole-substituted anthranilamides as pesticides” (Bayer Cropscience AG, priority 2010, dated 2013).

Data set [1] deals with green peach aphid (Myzus persicae). Description: Myzus test (MYZUPE spray treatment), Use Example 4. It is filed as in vivo. The settings on record: 144 h, after 6 days; for pest or weed control at 100 g/ha: read-out: activity in %. The procedure:
Solvents: 78 parts by weight of acetone • • 1.5 parts by weight of dimethylformamide
Emulsifier: 0.5 part by weight of alkylaryl polyglycol ether
An appropriate preparation of active compound is prepared by mixing 1 part by weight of active compound with the stated amounts of solvents and emulsifier and diluting the concentrate with emulsifier-containing water to the desired concentration.
Leaf discs of Chinese cabbage (Brassica pekinensis) infested by all stages of the green peach aphid (Myzus persicae) are sprayed with a preparation of active compound at the desired concentration.
After 6 days, the activity in % is ascertained. Here, 100% means that all of the aphids have been killed; 0% means that no aphids have been killed.

The nature of data set [2]: log P determination by HPLC on reversed-phase columns (EEC Directive 79/831 Annex V.A8). The class given is physicochemical. The settings on record: pH 2.7. The procedure, abridged: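 log P from reversed-phase LC-MS retention at pH 2.7, 0.1% formic acid water/acetonitrile gradient 10–95% acetonitrile. Calibrated against C3–C16 unbranched alkan-2-ones, interpolating linearly between adjacent alkanones.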

Data set [3] has as its system caterpillars of the armyworm (Spodoptera frugiperda). Kind of data set: Spodoptera frugiperda test (SPODFR spray treatment). It is filed as in vivo. The settings on record: 168 h, 100 g/ha, after 7 days, read-out: activity in %. The procedure, abridged: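 Maize leaf discs sprayed with compound diluted in emulsifier-containing water (acetone/DMF solvent, alkylaryl polyglycol ether emulsifier), dried, then infested with armyworm caterpillars. Kill scored after 7 days as % mortality, 100% = all caterpillars dead, 0% = none.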

Data set [4] deals with larvae of the mustard beetle (Phaedon cochleariae). Kind of data set: Phaedon test (PHAECO spray treatment). The class given is in vivo. The settings on record: 168 h, after 7 days; for pest or weed control at 100 g/ha: read-out: activity in %. The procedure, abridged:
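Compound dissolved in acetone/dimethylformamide with alkylaryl polyglycol ether emulsifier, then diluted with emulsifier-containing water to test concentration for spray treatment of Phaedon cochleariae larvae. Activity scored after 7 days as % larvae killed (100% = all dead, 0% = none).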

Where two headings read alike, the source gives them in different places.

Take `CNC(=O)c1cc(Cl)cc(Cl)c1NC(=O)c1cc(Cn2ncc(C(F)(F)F)n2)nn1-c1ncccc1Cl` [Example 146]: the pest or weed control at 100 g/ha in data set [1], in data set [3] and in data set [4] was 100% each time. In addition, the chromatographic logP in data set [2] came to 2.98.
Consider `CC(C)NC(=O)c1cc(Cl)cc(Cl)c1NC(=O)c1cc(Cn2ncc(C(F)(F)F)n2)nn1-c1ncccc1Cl` [Example 150], for which the pest or weed control at 100 g/ha was 90% in data set [1], 100% in data set [3] and 100% in data set [4]. The same molecule registered a chromatographic logP in data set [2] of 3.41.
With `Cc1cc(I)cc(C(N)=O)c1NC(=O)c1cc(Cn2ncc(C(F)(F)F)n2)nn1-c1ncccc1Cl` [Example 156], the pest or weed control at 100 g/ha in data set [1], in data set [3] and in data set [4] was 100% in each case. Moreover, the chromatographic logP in data set [2] came out at 2.89.
Consider `CNC(=O)c1cc(I)cc(C)c1NC(=O)c1cc(Cn2ncc(C(F)(F)F)n2)nn1-c1ncccc1Cl` [Example 157], for which the pest or weed control at 100 g/ha in data set [1], in data set [3] and in data set [4] was 100% throughout. Moreover, the chromatographic logP in data set [2] was 3.26.
With `Cc1cc(I)cc(C(=O)NCC#N)c1NC(=O)c1cc(Cn2ncc(C(F)(F)F)n2)nn1-c1ncccc1Cl` [Example 165], the pest or weed control at 100 g/ha in data set [1], in data set [3] and in data set [4] was 100% each time. Moreover, the chromatographic logP in data set [2] stood at 3.11.
Consider `CSC[C@H](C)NC(=O)c1cc(I)cc(C)c1NC(=O)c1cc(Cn2ncc(C(F)(F)F)n2)nn1-c1ncccc1Cl` [Example 166], for which the pest or weed control at 100 g/ha in data set [1], in data set [3] and in data set [4] was 100% in each case. Also, the chromatographic logP in data set [2] was found to be 3.98.
Consider `Cc1cc(F)cc(C(=O)NC(C)C)c1NC(=O)c1cc(Cn2ncc(C(F)(F)F)n2)nn1-c1ncccc1Cl` [Example 170], for which the pest or weed control at 100 g/ha in data set [1], in data set [3] and in data set [4] was 100% throughout. In addition, the chromatographic logP in data set [2] was 3.08.
Regarding `CNC(=O)c1cc(C#N)cc(C)c1NC(=O)c1cc(Cn2cc(C(F)(F)F)nn2)nn1-c1ncccc1Cl` [Example 177], the pest or weed control at 100 g/ha in data set [1], in data set [3] and in data set [4] was 100% each time. Besides, in data set [2], the chromatographic logP stood at 2.28.
Take `Cc1cc(C#N)cc(C(=O)NC(C)C2CC2)c1NC(=O)c1cc(Cn2cc(C(F)(F)F)nn2)nn1-c1ncccc1Cl` (stereo not drawn) [Example 178]: the pest or weed control at 100 g/ha in data set [1], in data set [3] and in data set [4] was 100% throughout. Moreover, the chromatographic logP in data set [2] stood at 2.95.
In data set [1], `CCNC(=O)c1cc(C#N)cc(C)c1NC(=O)c1cc(Cn2cc(C(F)(F)F)nn2)nn1-c1ncccc1Cl` [Example 180] gave a pest or weed control at 20 g/ha of 100%. Moreover, the chromatographic logP in data set [2] was found to be 2.49. Further, the pest or weed control at 100 g/ha in data set [3] amounted to 100%. Moreover, the pest or weed control at 500 g/ha in data set [4] (500 g/ha) amounted to 100%.
As to `Cc1cc(C#N)cc(C(=O)NC(C)(C)C)c1NC(=O)c1cc(Cn2cc(C(F)(F)F)nn2)nn1-c1ncccc1Cl` [Example 182], the pest or weed control at 100 g/ha in data set [1], in data set [3] and in data set [4] was 100% in each case. In addition, in data set [2], the chromatographic logP is 2.97.
Turning to `Cc1cc(C#N)cc(C(N)=O)c1NC(=O)c1cc(Cn2cc(C(F)(F)F)nn2)nn1-c1ncccc1Cl` [Example 184], the pest or weed control at 20 g/ha in data set [1] was found to be 100%. Moreover, in data set [2], the chromatographic logP was found to be 2.12. For the same molecule, the pest or weed control at 100 g/ha in data set [3] and in data set [4] was 100% throughout.
Regarding `Cc1cc(C#N)cc(C(=O)NCC2CC2)c1NC(=O)c1cc(Cn2cc(C(F)(F)F)nn2)nn1-c1ncccc1Cl` [Example 185], the pest or weed control at 100 g/ha in data set [1] is 90%; in data set [3], 100%; in data set [4], 100%. In data set [2], this molecule showed a chromatographic logP of 2.81.
Turning to `CNC(=O)c1cc(Cl)cc(C)c1NC(=O)c1cc(Cn2cc(C(F)(F)F)nn2)nn1-c1ncccc1Cl` [Example 187], the pest or weed control at 100 g/ha in data set [1], in data set [3] and in data set [4] was 100% in each case. The chromatographic logP in data set [2] is 2.6.
Regarding `CCNC(=O)c1cc(Cl)cc(C)c1NC(=O)c1cc(Cn2cc(C(F)(F)F)nn2)nn1-c1ncccc1Cl` [Example 189], the values for the pest or weed control at 100 g/ha in data set [1], in data set [3] and in data set [4] were 80%, 100% and 100%, respectively. Also, the chromatographic logP in data set [2] came out at 2.9.
In the case of `Cc1cc(Cl)cc(C(N)=O)c1NC(=O)c1cc(Cn2cc(C(F)(F)F)nn2)nn1-c1ncccc1Cl` [Example 192], the pest or weed control at 100 g/ha in data set [1], in data set [3] and in data set [4] was 100% in each case. The same molecule registered a chromatographic logP in data set [2] of 2.44.
In the case of `Cc1cc(Cl)cc(C(=O)NC(C)C2CC2)c1NC(=O)c1cc(Cn2cc(C(F)(F)F)nn2)nn1-c1ncccc1Cl` (stereo not drawn) [Example 193], the pest or weed control at 100 g/ha in data set [1], in data set [3] and in data set [4] was 100% in each case. Besides, in data set [2], the chromatographic logP worked out at 3.34.
With `CSC[C@H](C)NC(=O)c1cc(Cl)cc(C)c1NC(=O)c1cc(Cn2cc(C(F)(F)F)nn2)nn1-c1ncccc1Cl` [Example 194], the pest or weed control at 100 g/ha in data set [1], in data set [3] and in data set [4] was 100% in each case. Also, the chromatographic logP in data set [2] was 3.35.
Regarding `Cc1cc(Cl)cc(C(=O)NCC#N)c1NC(=O)c1cc(Cn2cc(C(F)(F)F)nn2)nn1-c1ncccc1Cl` [Example 196], the pest or weed control at 100 g/ha in data set [1], in data set [3] and in data set [4] was 100% each time. This molecule registered a chromatographic logP in data set [2] of 2.61.
Consider `CNC(=O)c1cc(Cl)cc(Cl)c1NC(=O)c1cc(Cn2cc(C(F)(F)F)nn2)nn1-c1ncccc1Cl` [Example 197], for which the pest or weed control at 100 g/ha in data set [1] is 90%; in data set [3], 100%; in data set [4] it was 100%. For the same molecule, the chromatographic logP in data set [2] stood at 2.59.
As to `CC(C)(C)NC(=O)c1cc(Cl)cc(Cl)c1NC(=O)c1cc(Cn2cc(C(F)(F)F)nn2)nn1-c1ncccc1Cl` [Example 201], the pest or weed control at 100 g/ha in data set [1], in data set [3] and in data set [4] was 100% throughout. Further, the chromatographic logP in data set [2] stood at 3.42.
On to `NC(=O)c1cc(Cl)cc(Cl)c1NC(=O)c1cc(Cn2cc(C(F)(F)F)nn2)nn1-c1ncccc1Cl` [Example 203], for which the pest or weed control at 100 g/ha in data set [1], in data set [3] and in data set [4] was 100% each time. Moreover, in data set [2], the chromatographic logP was found to be 2.43.
`CSC[C@H](C)NC(=O)c1cc(I)cc(C)c1NC(=O)c1cc(Cn2cc(C(F)(F)F)nn2)nn1-c1ncccc1Cl` [Example 212]: the pest or weed control at 100 g/ha in data set [1], in data set [3] and in data set [4] was 100% throughout. The molecule further had a chromatographic logP in data set [2] of 3.59.
With `Cc1cc(I)cc(C(N)=O)c1NC(=O)c1cc(Cn2cc(C(F)(F)F)nn2)nn1-c1ncccc1Cl` [Example 213], the pest or weed control at 100 g/ha in data set [1], in data set [3] and in data set [4] was 100% in each case. This molecule yielded a chromatographic logP in data set [2] of 2.64.
For `Cc1cc(I)cc(C(=O)NCC#N)c1NC(=O)c1cc(Cn2cc(C(F)(F)F)nn2)nn1-c1ncccc1Cl` [Example 215], the pest or weed control at 100 g/ha in data set [1] amounted to 90%; in data set [3], 100%; in data set [4] it was 100%. Further, the chromatographic logP in data set [2] was 2.82.
Consider `CNC(=O)c1cc(C#N)cc(C)c1NC(=O)c1cc(Cn2cc(C(F)(C(F)(F)F)C(F)(F)F)nn2)nn1-c1ncccc1Cl` [Example 217], for which the pest or weed control at 100 g/ha in data set [1], in data set [3] and in data set [4] was 100% throughout. Besides, the chromatographic logP in data set [2] worked out at 3.03.
On to `Cc1cc(C#N)cc(C(=O)NC(C)C)c1NC(=O)c1cc(Cn2cc(C(F)(C(F)(F)F)C(F)(F)F)nn2)nn1-c1ncccc1Cl` [Example 219], for which the values for the pest or weed control at 100 g/ha in data set [1], in data set [3] and in data set [4] were 80%, 100% and 100%, respectively. Further, in data set [2] (reversed-phase C18 HPLC column, HPLC on reversed-phase columns (C 18), EEC Directive 79/831 Annex V.A8, read-out: logP), the chromatographic logP came out at 3.44.
